Source: patent US7629382B2, “Use of tellurium containing compounds as nerve protecting agents” (BioMAS Ltd., priority 2003, dated 2009)
Where “and” joins values, the source holds several entries; their conditions need not be identical. Identical values can stand only once.

Assays:
[1] = biological target: recombinant p21 ras (Homo sapiens, UniProt P01112); test: Activation of recombinant p21ras by GDP/GTP exchange; type: biochemical; conditions: incubated 10 minutes
Protocol: AS101 (ammonium trichloro(dioxoethylene-O,O′)tellurate) was incubated with recombinant p21^ras for 10 minutes;
(§1) The effect of AS101 on signaling pathways that are controlled by Ras superfamily GTPases was screened by parallel analysis of the activation of the Ras family GTPases and their effectors (FIG. 1). The primary methods used for studying activation of different Ras superfamily GTPases were: (a) pull down of activated Ras superfamily GTPases from cell lysates, by binding of the specific recombinant purified effector GTPase binding domains to the activated GTP bound form. Subsequent to the pull down of the activated GTPases, the proteins were detected and quantified by western blotting; (b) activation of GTPases effectors such as Raf or RAC, by reporter gene assays; and (c) direct immunoprecipitation kinase assays (FIG. 2).
P21ras was cleaved by cyanogen bromide. This process yielded three fragments, each containing one cysteine residue: fragment 1 containing Cys51 (Mr 7,203); fragment 2 containing Cys60 (Mr 4,540) and fragment 3 containing Cys118 (Mr 6223). To confirm that Cys118 is the molecular target of AS101, a form of p21ras was generated identical to the wild type enzyme except that Cys118 is changed by a Ser residue (referred to as p21rasC118S). […] The stimulation by AS101 of nucleotide exchange on GDP-preloaded p21rasC118S in vitro was determined.

[2] = tested on: spinal cord injury; test: Rat spinal cord injury model (weight-drop contusion); type: in vivo
Protocol: Twenty rats were divided into 4 treatment groups (control, AS101 15; 20; 30 μg). Experimental spinal cord injury (SCI) was induced via weight-drop contusion models that result in significant locomotor deficits, including lack of coordination and trunk stability. AS101 was applied topically to the damaged area and rats were treated for 21 days with AS101 administrated i.v. At the end of the first week following SCI, and on days 14 and 21, recovery was determined using Basso, Beattie and Bresnahan (BBB) locomotor scale score.

[3] = tested on: p21waf; test: p21waf protein expression in PC12 cells (Western blotting); type: cell-based; conditions: for effect of pretreatment on p21waf protein expression induced by AS101: PC12 cells pretreated before AS101
Protocol: PC12 cells were washed in serum-free medium, resuspended to 1-5×10^6cells/ml. After 24 hours of incubation at 37° C. in culture, the cells were supplemented with 3 ml of medium (RPMI 1640 containing 10% FCS, 2% glutamine and 1 mg/ml G418 (Life Technologies, Inc.). After another 24 hours, cells were resuspended and maintained in the selection medium. After 3-4 weeks in selective medium, transfected cells were analyzed for via Western blotting. Results are expressed as percent p21 as compared to the negative (no drug) control.
PC12 cell extracts (20 μg/lane of protein) boiled under reducing conditions, were subjected to electrophoresis on 7.5 and 12.5% polyacrylamide gels and electro-transferred to nitrocellulose membranes. The membrane was blocked for one hour with 10% powdered milk in 0.2% Tween 20, Tris-buffered saline, and then incubated with the appropriate specific detecting antibodies. Immunoreactive proteins were detected with horseradish peroxidase-conjugated secondary antibodies (Amersham, Arlington Heights, Ill.) and a chemiluminescence reagent. For immunoprecipitation studies, immune complexes were precipitated with Protein A-Sepharose (Pharmacia) and, following electrophoresis, were blotted with anti-phosphoserine or anti-phosphotyrosine antibodies.

[4] = tested on: c-raf-1; test: Activation of p21ras downstream effector c-raf-1; type: cell-based; conditions: cells incubated with AS101 for 15 minutes
Text: as §1

[5] = tested on: PC12 cells; test: Detection of apoptosis in PC12 cells (NGF withdrawal); type: cell-based
Protocol: (§2) To assess the neuroprotective effects of AS101, PC12 cells were maintained in Dulbecco's modified Eagle's medium supplemented with 8% heat inactivated horse serum, 8% heat inactivated fetal bovine serum, glutamine (5 mM) and 50 μg/ml gentamycin at 37° C.
The percentage of cells undergoing apoptosis was quantitatively determined using an Apoptosis Detection kit, on the basis of their ability to bind annexin V and exclude iodide, and also by an in situ cell detection kit incorporating HTC labeling and TUNEL.

[6] = tested on: PC12 cells expressing a point mutation of Cys118 of P21ras; test: Neuronal differentiation of PC12 cells expressing Cys118 point mutation of p21ras; type: cell-based
[7] = rats; intravenous and intramuscular administration; cited from earlier work
[8] = tested on: PC12 cells; test: Neuronal differentiation of PC12 cells; type: cell-based
Protocol: as §2

[9] = tested on: PC12 cells; test: Cell cycle distribution of PC12 cells (propidium iodide flow cytometry); type: cell-based
Protocol: as §2
Cell cycle distribution studies were performed as previously described. Cells were trypsinyzed and suspended for 10 minutes at room temperature at 1.106/ml buffer containing lmg/ml RNAse, 1% NP-40, 10 μg/ml propidium iodide and 0.1% sodium citrate. Propidium iodide fluorescence was measured using a FACStar plus flow cytometer equipped with an air-cooled argon laser delivering 15 mW of light at […]. The red fluorescence from 1.104 cells from each sample was collected through a 610 nm bandpass filter.

[10] = tested on: PC12 cells expressing the dominant negative form (N17) of ras; test: Neuronal differentiation of PC12 cells expressing dominant negative ras; type: cell-based
Protocol: as §2
The ras Asn-17 gene was then cloned into a mammalian expression vector. Transfection of PC12 cells with the plasmid DNA was performed with the calcium phosphate precipitation technique as described previously.

[11] = tested on: Erk; test: Kinase assay of immunoprecipitated Erk with myelin basic protein as substrate; type: cell-based; conditions: Jurkat T cells or NIH3T3 cells
Protocol: NIH3T3 cells were incubated with AS101 for 10 minutes with or without famesyl transferase inhibitor.
Endogenous JNK and erk were immunoprecipitated from cell lysates with specific antibodies and their activities measured by using p^32 ATP and glutathione s-transferase (GST) e-jun or myelin basic protein (MPB) respectively, as the substrate. Samples were run on SDS-polyacrylamide gel electrophoresis gels and subjected to Phosphorlmager analysis.
as §1

Chain of recombinant p21 ras (P01112 whole entry, species assumed): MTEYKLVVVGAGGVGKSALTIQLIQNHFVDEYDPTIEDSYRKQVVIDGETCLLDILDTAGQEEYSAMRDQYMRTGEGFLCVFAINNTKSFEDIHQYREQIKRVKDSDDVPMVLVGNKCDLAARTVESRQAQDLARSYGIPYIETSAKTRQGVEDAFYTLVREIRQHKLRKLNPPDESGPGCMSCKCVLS

Cl[TeH]1(Cl)(Cl)OCCO1 [AS101, ammonium trichloro(dioxyethylene-O,O′)tellurate]
binding to and activation of p21 ras via GDP/GTP exchange [1]: directly binds to recombinant p21 ras and activates it via GDP/GTP exchange
reduction in body weight following injury [2]: attenuated
mortality ([2]; 20 μg AS101 group, two deaths in control group): no mortality
mortality ([2]; 30 μg AS101 group, two deaths in control group): no mortality
tolerability / adverse side effects ([2]; administration after spinal cord injury): well tolerated
BBB locomotor scale score (functional recovery) ([2]; high dose AS101, repeated administration, control 1±1.7): 3±2
deaths ([2]; low dose group, two deaths in control group): one
therapeutic effect during second and third weeks of treatment ([2]; second and third weeks): no beneficial effect
p21waf protein expression ([3]; PC12 cells, 24 h, dose-dependent): pronounced increase
activation of c-raf-1 [4]: could activate
Apoptotic ([5]; AS101 0.1 μg/ml): 8.8%
Apoptotic ([5]; AS101 0.5 μg/ml): 5.3%
Apoptotic ([5]; AS101 1 μg/ml): 6.6%
cellular differentiation [6]: did not result in cellular differentiation
LD50 relative to immunologically effective dose [7]: 500-1000 folds
neuronal differentiation [8]: induced neuronal differentiation in a dose-dependent manner
optimal doses for inducing neuronal differentiation [8]: 0.5 µg/mL and 1 µg/mL
G0/G1 ([9]; AS101 0.1 μg/ml): 39.7%
G2/M ([9]; AS101 0.1 μg/ml): 16.4%
S ([9]; AS101 0.1 μg/ml): 43.9%
G2/M ([9]; AS101 0.5 μg/ml): 27.9%
S ([9]; AS101 0.5 μg/ml): 4.0%
G0/G1 ([9]; AS101 0.5 μg/ml, 24 hours): 68.1%
G0/G1 ([9]; AS101 1 μg/ml): 67.5%
G2/M ([9]; AS101 1 μg/ml): 29%
S ([9]; AS101 1 μg/ml): 3.5%
G0/G1 ([9]; NGF + anti NGF Ab + AS101): 68%
G2/M ([9]; NGF + anti NGF Ab + AS101): 27.6%
S ([9]; NGF + anti NGF Ab + AS101): 4.4%
differentiation [10]: did not result in their differentiation
activation of ras and downstream effector Erk [11]: activated ras and its downstream effector, Erk

COc1cccc(-c2cc(=O)c3ccccc3o2)c1N [PD98059]
effect of pretreatment on p21waf protein expression induced by AS101 [3]: abolished

COC(=O)[C@H](CCSC)NC(=O)c1ccc(NC[C@@H](N)CS)cc1-c1ccccc1 [farnesyl transferase inhibitor]
effect of pretreatment on p21waf protein expression induced by AS101 [3]: abolished
